The values that follow come from patent US7256187B2, “Rifamycin C-11 oxime derivatives effective against drug-resistant microbes” (Cumbre Pharmaceuticals Inc., priority 2004, dated 2007).

In brackets after ≈: the same amount, converted by molar mass.

What all share (assay type): cell-based
Experiment [1] concerns Mycobacterium smegmatis ATCC700084. The experiment in a line: MIC, microbroth dilution. As to conditions: Mycolicibacterium smegmatis; Mycobacterium smegmatis ATCC700084, rifS; read-out: Antimicrobial activity (MIC).
Experiment [2] concerns Escherichia coli ATCC25922. Put plainly: MIC, microbroth dilution. The note with it: Escherichia coli ATCC25922, rifS; read-out: Antimicrobial activity (MIC). Background: Broth dilution looks for growth in wells or tubes with falling amounts of substance.
The test system of experiment [3] is Enterococcus faecalis ATCC29212. The experiment in a line: MIC, microbroth dilution. The note with it: Enterococcus faecalis ATCC29212, rifS; read-out: Antimicrobial activity (MIC).
In experiment [4] the test system is Streptococcus pyogenes ATCC19615. The experiment in a line: MIC, microbroth dilution. The note with it: Streptococcus pyogenes ATCC19615, rifS; read-out: Antimicrobial activity (MIC).
For experiment [5], the system named is Streptococcus pneumoniae ATCC6303. Put plainly: MIC, microbroth dilution. As to conditions: Streptococcus pneumoniae ATCC6303, rifS; read-out: Antimicrobial activity (MIC).
Experiment [6] concerns Staphylococcus aureus ATCC29213 rpoB^D417Y. The experiment in a line: microbe, parasite or virus in culture. As to conditions: Staphylococcus aureus ATCC29213 rpoB^D417Y, rifR; read-out: Antimicrobial activity (MIC). The method, then:
(§1) Representative compounds were assayed for antimicrobial activity as follows: Minimum Inhibitory Concentrations (“MICs”) were determined by the microbroth dilution method as per NCCLS guidelines (National Committee for Clinical Laboratory Standards. 2000. Methods for dilution antimicrobial susceptibility tests for bacteria that grow aerobically, 5th ed. M7-A5. National Committee for Clinical Laboratory Standards, Wayne, Pa.), except that all growth incubations were conducted at 37° C. Bacterial cultures were tested in the following bacteriological media: S. aureus, S. epidermidis, and E. coli in Cation-Adjusted Mueller-Hinton Broth, S. pneumoniae in THY Broth supplemented with 1 mg/mL catalase under 5% CO2 atmosphere, S. pyogenes in THY Broth, E. faecalis in BHI Broth, H. influenzae in BHI Broth supplemented with 0.75 μL of 1 mg/mL NAD and 150 μL of 1 mg/ml hematin per 5 mL, and M. smegmatis in Middlebrook Broth plus ADC Enrichment.
(§2) S. aureus ATCC 29213 RpoB^H418Y is a rifampin-resistant strain with a mutation in the RpoB gene of RNA polymerase. […] S. aureus EN1252a gyrA^S84L grlA^S80F is a quinolone-resistant strain due to double gene mutations of DNA gyrase and topoisomerase IV.

The test system of experiment [7] is Staphylococcus aureus EN1252a gyrA^S84L grlA^S80F. The experiment in a line: microbe, parasite or virus in culture. The note with it: Staphylococcus aureus EN1252a gyrA^S84L grlA^S80F, cipR; read-out: Antimicrobial activity (MIC). The method, then: as §1, §2
Experiment [8] has as its system Staphylococcus aureus ATCC29213 rpoB^H418Y. The experiment in a line: microbe, parasite or virus in culture. The note with it: Staphylococcus aureus ATCC29213 rpoB^H418Y, rifR; read-out: Antimicrobial activity (MIC). The procedure: as §1, §2
In experiment [9] the test system is Haemophilus influenzae ATCC10211. The experiment in a line: MIC, microbroth dilution. As to conditions: Haemophilus influenzae ATCC10211, rifS; read-out: Antimicrobial activity (MIC).
Experiment [10] has as its system Staphylococcus epidermidis ATCC12228. The experiment in a line: MIC, microbroth dilution. The note with it: Staphylococcus epidermidis ATCC12228, rifS; read-out: Antimicrobial activity (MIC).
For experiment [11], the system named is Staphylococcus aureus ATCC29213. The experiment in a line: MIC, microbroth dilution. As to conditions: Staphylococcus aureus ATCC29213, rifS; read-out: Antimicrobial activity (MIC).

In the case of `CO[C@H]1/C=C/O[C@@]2(C)Oc3c(C)c(O)c4c(c3/C2=N/OCCN2CCN(Cc3ccccc3)CC2)C(=O)C=C(NC(=O)/C(C)=C\C=C\[C@H](C)[C@H](O)[C@@H](C)[C@@H](O)[C@@H](C)[C@H](OC(C)=O)[C@@H]1C)C4=O` [Example 25, 11-Deoxy-11-[2-(4-benzylpiperazin-1-yl)ethoxyimino]rifamycin S], the MIC in [1] fell in the range of 0.5 to 64 µg/mL (≈ 0.548 to 70.1 µM); in experiment [2], 0.125 to 8 µg/mL (≈ 0.137 to 8.76 µM); in [3], 2 to 32 µg/mL (≈ 2.19 to 35 µM); in experiment [4] it was 0.0005 to 0.063 µg/mL (≈ 0.000548 to 0.069 µM); in experiment [5], 0.0002 to 0.125 µg/mL (≈ 0.000219 to 0.137 µM); in [6], 0.25 to 32 µg/mL (≈ 0.274 to 35 µM). Besides, the MIC in experiment [7] was in the range of 0.004 to 0.5 µg/mL (≈ 0.00438 to 0.548 µM); in experiment [8], 0.125 to 16 µg/mL (≈ 0.137 to 17.5 µM); in experiment [9] it was 0.03 to 2 µg/mL (≈ 0.0329 to 2.19 µM); in [10], 0.0005 to 0.063 µg/mL (≈ 0.000548 to 0.069 µM); in experiment [11], 0.004 to 0.5 µg/mL (≈ 0.00438 to 0.548 µM).

With `CO[C@H]1/C=C/O[C@@]2(C)Oc3c(C)c(O)c4c(c3/C2=N/OCCN2CCN(c3ccccc3O)CC2)C(=O)C=C(NC(=O)/C(C)=C\C=C\[C@H](C)[C@H](O)[C@@H](C)[C@@H](O)[C@@H](C)[C@H](OC(C)=O)[C@@H]1C)C4=O` [Example 26, 11-Deoxy-11-{2-[4-(2-hydroxy-phenyl)piperazin-1-yl]ethoxyimino}rifamycin S], the MIC was 0.5 to 64 µg/mL (≈ 0.546 to 69.9 µM) in experiment [1]; 0.125 to 8 µg/mL (≈ 0.137 to 8.74 µM) in experiment [2]; 2 to 32 µg/mL (≈ 2.19 to 35 µM) in experiment [3]; 0.0005 to 0.063 µg/mL (≈ 0.000546 to 0.0688 µM) in [4]; 0.0002 to 0.125 µg/mL (≈ 0.000219 to 0.137 µM) in [5]; 0.25 to 32 µg/mL (≈ 0.273 to 35 µM) in experiment [6]. For the same molecule, the MIC in experiment [7] lay in the range of 0.004 to 0.5 µg/mL (≈ 0.00437 to 0.546 µM); in experiment [8], 0.125 to 16 µg/mL (≈ 0.137 to 17.5 µM); in experiment [9], 0.03 to 2 µg/mL (≈ 0.0328 to 2.19 µM); in [10], 0.0005 to 0.063 µg/mL (≈ 0.000546 to 0.0688 µM); in [11], 0.004 to 0.5 µg/mL (≈ 0.00437 to 0.546 µM).

Take `CO[C@H]1/C=C/O[C@@]2(C)Oc3c(C)c(O)c4c(c3/C2=N/O)C(=O)C(CO)=C(NC(=O)/C(C)=C\C=C\[C@H](C)[C@H](O)[C@@H](C)[C@@H](O)[C@@H](C)[C@H](OC(C)=O)[C@@H]1C)C4=O` [Example 27]: the MIC fell in the range of 0.5 to 64 µg/mL (≈ 0.675 to 86.4 µM) in experiment [1]; 0.125 to 8 µg/mL (≈ 0.169 to 10.8 µM) in experiment [2]; 2 to 32 µg/mL (≈ 2.7 to 43.2 µM) in experiment [3]; 0.0005 to 0.063 µg/mL (≈ 0.000675 to 0.085 µM) in [4]; 0.0002 to 0.125 µg/mL (≈ 0.00027 to 0.169 µM) in experiment [5]; 0.25 to 32 µg/mL (≈ 0.337 to 43.2 µM) in experiment [6]. For the same molecule, the MIC in experiment [7] was 0.004 to 0.5 µg/mL (≈ 0.0054 to 0.675 µM); in experiment [8] it was 0.125 to 16 µg/mL (≈ 0.169 to 21.6 µM); in experiment [9] it was 0.03 to 2 µg/mL (≈ 0.0405 to 2.7 µM); in experiment [10], 0.0005 to 0.063 µg/mL (≈ 0.000675 to 0.085 µM); in [11], 0.004 to 0.5 µg/mL (≈ 0.0054 to 0.675 µM).

On to `CO[C@H]1/C=C/O[C@@]2(C)Oc3c(C)c(O)c4c(c3/C2=N/OCC(=O)O)C(=O)C(N2CCOCC2)=C(NC(=O)/C(C)=C\C=C\[C@H](C)[C@H](O)[C@@H](C)[C@@H](O)[C@@H](C)[C@H](OC(C)=O)[C@@H]1C)C4=O` [Example 28, 11-Deoxy-3-(morpholin-4-yl)-11-(4-carboxymethoxyimino)-rifamycin S], for which the MIC in [1] was 0.5 to 64 µg/mL (≈ 0.586 to 74.9 µM); in experiment [2] it was 0.125 to 8 µg/mL (≈ 0.146 to 9.37 µM); in experiment [3], 2 to 32 µg/mL (≈ 2.34 to 37.5 µM); in experiment [4], 0.0005 to 0.063 µg/mL (≈ 0.000586 to 0.0738 µM); in [5], 0.0002 to 0.125 µg/mL (≈ 0.000234 to 0.146 µM); in experiment [6], 0.25 to 32 µg/mL (≈ 0.293 to 37.5 µM). Further, the MIC in [7] was 0.004 to 0.5 µg/mL (≈ 0.00468 to 0.586 µM); in [8] it was 0.125 to 16 µg/mL (≈ 0.146 to 18.7 µM); in experiment [9], 0.03 to 2 µg/mL (≈ 0.0351 to 2.34 µM); in [10] it was 0.0005 to 0.063 µg/mL (≈ 0.000586 to 0.0738 µM); in experiment [11], 0.004 to 0.5 µg/mL (≈ 0.00468 to 0.586 µM).
